Measured values taken from US20080131366A1, “Folate Receptor Gene Modulation For Cancer Diagnosis And Therapy” (priority 2003, published 2008).

Tests used:
Assay type in all cases: cell-based
[1] = system: FR-α promoter; assay: FR-α promoter-luciferase reporter in HeLa cells co-transfected with ER
Protocol: (§1) (FIG. 1A) HeLa and IGROV-1 cells (10^6) were co-transfected with the FR-α promoter-luciferase construct (400 ng) and either an ER expression plasmid (25 ng) or with the plasmid vector alone (25 ng) in the presence of 1 nM E2. Antiestrogens were introduced at the time of transfection. […] (FIG. 1B) The FR-α promoter-luciferase construct (400 ng) was transfected into BG-1 cells (10^6) in the absence or in the presence of E2 (1 nM) and antiestrogens were introduced at the time of transfection. (FIG. 1C) HeLa cells (10^6) were transfected with the thymidine kinase (TK)-promoter-luciferase (200 ng) or Rous Sarcoma Virus (RSV)-promoter-luciferase (200 ng) constructs and were co-transfected with either ER plasmid (25 ng) or with the plasmid vector (25 ng). Antiestrogens were introduced at the time of transfection.
FIGS. 2A and 2B are graphs showing an estrogen and antiestrogen dose response of a control ERE-driven promoter and the FR-α promoter in HeLa cells. The Y-axis in FIG. 2A indicates promoter activation, whereas the Y-axis in FIG. 2B indicates promoter repression. The cells (10^6) were transfected with either ERE2E1b-luciferase (100 ng) (FIG. 2A) or FR-α promoter-luciferase (100 ng) (FIG. 2B) and co-transfected with the ER expression plasmid (50 ng) where indicated. Cells that were not co-transfected with the ER-plasmid were co-transfected instead with the plasmid vector alone (50 ng).
FIGS. 3A and 3B are graphs showing a time course of response of the control ERE2E1b-luciferase (FIG. 3A) and FR-α promoter luciferase (FIG. 3B) to antiestrogens in HeLa cells. The cells (10^6) were transfected with the indicated promoter-luciferase construct (100 ng) and co-transfected with ER expression plasmid (50 ng) in the presence of E2 (1 nM).
In one set of experiments, the antiestrogens were removed after a 6 h treatment.
Cell Culture and Transfection: HeLa I-1 cells were kindly provided by Dr. S. T. Rosen. BG-1 cells were provided by Dr. Randolf Ruch. HeLa (American Type Tissue Collection) and HeLa I-1 cells were routinely cultured in phenol red-free MEM supplemented with fetal bovine serum (FBS) (10%), penicillin (100 units/mL), streptomycin ([…]), and L-glutamine (2 mM). BG-1 and IGROV1 (American Type Tissue Collection) cells were routinely cultured in DMEM and supplemented as above. Treated or transfected cells were grown in phenol-red free media supplemented with charcoal-stripped FBS (5% v/v), penicillin (100 units/mL), streptomycin ([…]), L-glutamine (2 mM), insulin (2 μg/mL), and transferrin (40 μg/mL) unless otherwise noted. In addition, treated HeLa I-1 cells were grown in culture with 50 μg/mL G418. […] Uniformity of transfection was routinely monitored through cotransfections with the β-galactosidase expression plasmid, pSV-β-gal (Promega). β-galactosidase activity was measured colorimetrically using the assay system available from Promega.
Luciferase Assay: Forty-eight hours after transfection, the cells were washed once with PBS (10 mM sodium phosphate, pH 7.5, 150 mM NaCl) and harvested in 400 μL of reporter lysis buffer provided with the luciferase assay system (Promega). The samples were centrifuged at 12,000 g for 2 min at room temperature. The supernatant was assayed for luciferase activity in a luminometer (Lumat LB9501, Berthold) using the luciferase substrate from Promega.

[2] = system: FR-α promoter; assay: FR-α promoter-luciferase reporter in IGROV-1 cells co-transfected with ER; settings: IGROV-1, ER co-transfected, 1 nM E2, pharmacologic concentrations of antiestrogen
Protocol: as §1
(§2) Cell Culture and Transfection: HeLa I-1 cells were kindly provided by Dr. S. T. Rosen. BG-1 cells were provided by Dr. Randolf Ruch. […] Uniformity of transfection was routinely monitored through cotransfections with the β-galactosidase expression plasmid, pSV-β-gal (Promega). β-galactosidase activity was measured colorimetrically using the assay system available from Promega. […]

[3] = system: FR-α promoter; assay: FR-α promoter-luciferase reporter in BG-1 cells (endogenous ER); settings: BG-1, endogenous ER
Protocol: as §1, §2

[4] = system: FR-α; assay: Induction of endogenous FR-α in ER+/FRα-negative cells; settings: ER+/FRα-negative cells including BG-1; results not shown
Text: It appears that ER will only modulate the endogenous FR-α gene in cells in which the gene is transcriptionally active.

[5] = system: FR-α/SV40 (GC)6 promoter; assay: FR-α/SV40 (GC)6 chimeric promoter-luciferase in HeLa cells with ER; settings: in the presence of ER
Protocol: FIG. 6C is a graph showing HeLa cells (10^6) which were transfected with FR-α promoter-luciferase (FR-α-Luc) (400 ng) [Seq. ID No. 6], FR-1-Luc in which the G/C-rich region (−47 nt to −18 nt) [Seq. ID No. 7] of the P4 promoter was replaced by the G/C-rich region in the SV40 early promoter (FR-α/SV40 (GC)6) (400 ng), or with FR-α-Luc[Seq. ID No. 6] in which the initiator region (−28 nt to +33 nt) [Seq. ID No. 8] was replaced by the TATA box-containing initiator region of the SV40 early promoter (FR-α/SV40-lnr) (400 ng). ER expression plasmid (25 ng) or the plasmid vector (25 ng) was co-transfected as indicated. The transfected cells were grown in the presence of E2 (1 nM) and either in the absence or in the presence of ICI 182, 780 for 48 h before harvesting them for luciferase assays.
DNA Constructs: Construct design used either natural restriction sites or restriction sites created by the polymerase chain reaction (PCR) using Vent DNA polymerase (New England Biolabs) and custom oligonucleotides from Gibco BRL. In cases where a natural restriction site could not be found for use, complementary primers containing an appropriate restriction site or point mutation were used in conjunction with upstream and downstream primers containing restriction sites. Alternatively, mutagenic oligonucleotides were used as end primers to amplify the desired fragment. […]

[6] = system: FR-α promoter; assay: FR-α promoter-luciferase in HeLa cells transfected with ERβ
Protocol: FIG. 8 is graph showing an effect of ERα vs. […] on FR-α promoter activity. HeLa cells (10^6) were transfected with the FR-α promoter-luciferase construct (200 ng) and co-transfected individually or in combination with expression plasmids (25 ng) for ERα, […] or with the plasmid vector. The cells were treated from the time of transfection with E2 (1 nm) and either without or with ICI 182, 780.
Effect of ERβ on FR-α Promoter activity: Since ER+ gynecological tumors are known to frequently co-express ERα and ERβ, the inventor herein tested whether ERβ may modulate FR-α similar to ERα or may otherwise counteract the effect of ERα.

## C[C@]12CC[C@@H]3c4ccc(O)cc4C[C@@H](CCCCCCCCC[S+]([O-])CCCC(F)(F)C(F)(F)F)[C@H]3[C@@H]1CC[C@@H]2O (stereo partly drawn) [ICI 182,780]
[1]; 6 h treatment
  duration of derepression after withdrawing the compound: at least 18 h
[1]; 6 h treatment, then compound withdrawn
  derepression of FR-α promoter after 6 h treatment and withdrawal: full derepression
[1]; HeLa, ER co-transfected
  effect on FR-α promoter (ligand dose response): the repression was counteracted
[1]; HeLa, ER co-transfected, 1 nM E2, pharmacologic concentrations of antiestrogen
  FR-α promoter activity after repression by ER: either partially or completely restored to the uninhibited values
[1]; antiestrogen introduced 24 h after co-transfection
  reporter activity at the end of 48 h post-transfection: a doubling of the reporter activity
[1]; antiestrogen introduced 24 h after transfection
  onset of activation of FR-α promoter: began within hours and progressively increased
[1]; no ER co-transfected, HeLa and IGROV-1, results not shown
  FR-α promoter activity in the absence of ER: did not alter FR-α promoter activity
[2]
  FR-α promoter activity after repression by ER: either partially or completely restored to the uninhibited values
[3]
  FR-α promoter activity: increased the promoter activity
[4]
  induction of endogenous FR-α expression: In no case did the inventor observe induction
[5]
  chimeric promoter activity: this activation was counteracted
[6]
  repression of the FR-α promoter by ERβ: reversed
